Reference: patent US20260199424A1, “METHODS AND COMPOSITIONS FOR IMPROVING VISUAL FUNCTION IN OCULAR DISEASES AND DISORDERS” (priority 2022, published 2026)
Values joined by “and” are separate entries in the source; they are usually repeats but may differ in a detail not shown here. Equal values may be shown once. “Also recorded” adds a separate entry of the source. Read-outs that look alike come from different tables or passages of the source. No end group written: not given here.

Tests used:
MCP1 = test: Retinal detachment study, cytokine change from administration to surgery: MCP1; format: in vivo, human; settings: for Percent Change (%) from time of administering ONL1204 to surgery MCP1: individual patients
Description: (§1) During the study, ocular fluid samples were also collected at the time of study drug injection and at the time of vitrectomy. These samples were used for pharmacokinetic and pharmacodynamic analyses.
(§2) Patients were enrolled in ascending dose groups. […] Safety visits were conducted one day post-injection and as deemed necessary by the examining Investigator (at least 1 visit every 3 days) until Visit 3. At Visit 3 (3+ days post-injection, in accordance with standard of care) patients underwent surgical repair of their retinal detachment with vitrectomy (with or without scleral buckling) and gas or oil tamponade. At the time of surgery, an undiluted vitreous sample was collected for pharmacokinetic and pharmacodynamics analyses, and an aqueous sample was collected for pharmacodynamic analysis. Additional safety visits were targeted for and generally conducted one day post-surgery, 7 days (±3 days) post-surgery, 14 (±4 days) days post-surgery, and Weeks 6, 9, 12 (±7 days each), and Week 24 (±14 days; study exit).

IL1RA = test: Retinal detachment study, cytokine change from administration to surgery: IL1RA; format: in vivo, human; settings: for Percent Change (%) from time of administering ONL1204 to surgery IL1RA: individual patients
Description: as §1, §2

[1] = rabbit, in vivo
Description: Body weights were measured and recorded prior to first dose, approximately weekly (for surviving animals through Week 12), and prior to euthanasia. […] Ophthalmic examinations were performed using the Hackett-McDonald Scoring System on Days 0, 7, 14, 28, 90, 97, 151, and 168. Pharmacokinetic analyses were performed on the vitreous humor concentration data.
Seven animals received a repeat IVT dose at 2 mg/mL (0.1 mg/eye) on Day 90.
Vitreous humor, retina, and choroid were collected on days 1, 7, 14, 28, 42, 61, 90, 97, 151, and 168. Eyes were enucleated, snap frozen using liquid nitrogen, and kept on dry ice or frozen at −80° C. until dissected for collection of aqueous humor, vitreous humor, retina, choroid, iris-ciliary body (ICB), and lens.
To homogenize ocular tissue samples, weighed amounts of control bovine vitreous humor, retina, and choroid were homogenized in USA scientific impact resistant microtubes containing 2.8 mm ceramic beads. Unknown rabbit vitreous humor, retina, and choroid samples were homogenized in USA scientific impact resistant microtubes containing 2.8 mm ceramic beads. […]

IL18 = test: Retinal detachment study, cytokine change from administration to surgery: IL18; format: in vivo, human; settings: for Percent Change (%) from time of administering ONL1204 to surgery IL18: individual patients
Description: as §1, §2

[2] = minipig, in vivo
Description: Seven animals received a repeat IVT dose at 2 mg/mL (0.1 mg/eye) on Day 90. […] Vitreous humor, retina, and choroid were collected on days 1, 7, 14, 28, and 88.

[3] = test system: patients having macular degeneration characterized by geographic atrophy (GA); test: Study in geographic atrophy (GA) patients, BCVA; format: in vivo, human; settings: single IVT injection, doses 25 ug and 50 ug as printed
Description: Baseline best corrected visual acuity (BCVA) was measured prior to treatment with ONL1204.

male rabbit NaIO3 model = test: Sodium iodate (NaIO3) challenge study, lesion size (area of RPE depigmentation); format: in vivo; settings: for lesion area versus negative control: NaIO3 challenge Day 4; for mean lesion size smaller compared to negative controls: NaIO3 challenge Day 59
Description: Animals were anesthetized with isoflurane vapors to effect. […] No reflux was noted on the dosing record.
Animals were anesthetized with isoflurane vapors to effect.
The resulting area was then measured.

ICAM1 = test: Retinal detachment study, cytokine change from administration to surgery: ICAM1; format: in vivo, human; settings: for Percent Change (%) from time of administering ONL1204 to surgery ICAM1: individual patients
Description: as §1, §2

[4] = test system: patients with retinal detachment; test: Retinal detachment study, adverse events; format: in vivo, human
Description: The primary objective was to determine the Maximum Tolerated Dose (MTD) of a peptide an amino acid sequence […] and the structure of Formula III (ONL1204) and select doses for further clinical studies. During the study, ocular fluid samples were also collected at the time of study drug injection and at the time of vitrectomy. These samples were used for pharmacokinetic and pharmacodynamic analyses.
as §2
Planned determinations of dose limiting toxicity included consideration of the following events: • 1.

[5] = test system: patients with retinal detachment; test: Retinal detachment study, best corrected visual acuity; format: in vivo, human; parameters: key to BCVA Snellen study eye baseline / BCVA Snellen study eye week 9: HM = hand motion; CF = counting fingers; settings: for BCVA logMAR study eye week 6 / BCVA Snellen study eye week 6: week 6, individual patients; for BCVA logMAR study eye week 9 / BCVA Snellen study eye week 9: week 9, individual patients; for BCVA logMAR study eye week 24 / BCVA Snellen study eye week 24: week 24, individual patients
Description: as §1, §2
Therefore, a volume of 0.05 or 0.1 mL was injected into the study eye. Patient participation was approximately 24 weeks (6 months): a single injection treatment and 24 weeks of follow-up.

[6] = test system: patients with progressing open angle glaucoma; test: Multi-dose study in progressing open-angle glaucoma, Humphrey Visual Field analysis; format: in vivo, human
Description: Visual function metrics were measured at over two screening time points, a baseline, and at about days 90, 177, 180, and 270. Measures for visual function included visual field analysis pre- and post-treatment with ONL1204.
Patients were part of the study for approximately 39 weeks (270 days). Randomization was be stratified by HVF mean deviation (−5.00 dB to >−10.00 dB and ≤−10.00 dB to −15.00 dB).
FIGS. 3-5 show study and fellow eye data for the changes in mean visual field analysis of clusters in sham, 50 ug, and 100 ug patients. The data represents mean data for each cluster (10 clusters per patient). […] Each cluster is denoted by a rate of change in sensitivity, in dB/yr. The Baseline sensitivity of each cluster is denoted in dB. Positive values indicate an improvement in visual field and/or improving rate of visual field change. FIGS. 6-8 show study and fellow eye data for the changes in mean visual field analysis (unclustered, point specific, pointwise) in sham, 50 ug, and 100 ug patients.

Substance: HHIYLGAVNYIY-NH2 [ONL1204]
- Percent Change (%) from time of administering ONL1204 to surgery MCP1 (MCP1; 25 ug (dose per Table 1)): −41.4% and −6.02% and −35.9%
- Percent Change (%) from time of administering ONL1204 to surgery MCP1 (MCP1; 50 ug (dose per Table 1)): −3.12% and −48.4% and 11.6%
- Percent Change (%) from time of administering ONL1204 to surgery MCP1 (MCP1; 100 ug (dose per Table 1)): −9.5% and 78.5% and 500%
- Percent Change (%) from time of administering ONL1204 to surgery MCP1 (MCP1; 200 ug (dose per Table 1)): −2.4%
- mean change in MCP1 from administration to surgery (MCP1; all patients of Table 7): mean decrease
- Percent Change (%) from time of administering ONL1204 to surgery IL1RA (IL1RA; 25 ug (dose per Table 1)): −51.0% and −57.4% and −99.3%
- Percent Change (%) from time of administering ONL1204 to surgery IL1RA (IL1RA; 50 ug (dose per Table 1)): −60.0% and −94.4% and −88.3%
- Percent Change (%) from time of administering ONL1204 to surgery IL1RA (IL1RA; 100 ug (dose per Table 1)): 8.5% and −46.1% and −65.2%
- Percent Change (%) from time of administering ONL1204 to surgery IL1RA (IL1RA; 200 ug (dose per Table 1)): −26.3%
- mean change in IL1RA from administration to surgery (IL1RA; all patients of Table 7): mean decrease
- detection in retinal tissue and vitreous humor [1]: detected in retinal tissue as well as the vitreous humor after 168 days
- detection in the vitreous humor [1]: detected in the vitreous humor across all time points analyzed
- Percent Change (%) from time of administering ONL1204 to surgery IL18 (IL18; 25 ug (dose per Table 1)): −60.5% and −22.5% and −50.8%
- Percent Change (%) from time of administering ONL1204 to surgery IL18 (IL18; 50 ug (dose per Table 1)): 0% (2×) and −100%
- Percent Change (%) from time of administering ONL1204 to surgery IL18 (IL18; 100 ug (dose per Table 1)): −33.7% and 0% and 66.0%
- Percent Change (%) from time of administering ONL1204 to surgery IL18 (IL18; 200 ug (dose per Table 1)): 0%
- mean change in IL18 from administration to surgery (IL18; all patients of Table 7): mean decrease
- detection in the vitreous humor [2]: detected in the vitreous humor across all time points analyzed
- visual outcomes (visual acuity, BCVA) versus baseline [3]: improvement in visual outcomes
- mean lesion size across challenge time points (male rabbit NaIO3 model; 25 ug and 100 ug per eye IVT Day 0): substantive reduction in mean lesion size
- lesion area versus negative control (male rabbit NaIO3 model; 25 ug per eye IVT Day 0): significantly lower than negative control
- mean lesion size smaller compared to negative controls (male rabbit NaIO3 model; 25 ug per eye IVT Day 0): 40%
- lesion area versus negative control (male rabbit NaIO3 model; 100 ug per eye IVT Day 0): significantly lower than negative control
- lesion size versus negative controls and 25 ug (male rabbit NaIO3 model; 100 ug per eye IVT Day 0, NaIO3 challenge Day 14): significantly smaller lesion size
- lesion size versus negative control and 25 ug (male rabbit NaIO3 model; 100 ug per eye IVT Day 0, NaIO3 challenge Day 28): significantly smaller lesion size
- mean lesion size smaller compared to negative controls (male rabbit NaIO3 model; 100 ug per eye IVT Day 0): 50%
- Percent Change (%) from time of administering ONL1204 to surgery ICAM1 (ICAM1; 25 ug (dose per Table 1)): −82.4% and −42.7% and −86.2%
- Percent Change (%) from time of administering ONL1204 to surgery ICAM1 (ICAM1; 50 ug (dose per Table 1)): 64.0% and −100% and 0%
- Percent Change (%) from time of administering ONL1204 to surgery ICAM1 (ICAM1; 100 ug (dose per Table 1)): −43.9% and 24.9% and 22.7%
- Percent Change (%) from time of administering ONL1204 to surgery ICAM1 (ICAM1; 200 ug (dose per Table 1)): 0%
- mean change in ICAM from administration to surgery (ICAM1; all patients of Table 7): mean decrease
- severity of adverse events ([4]; 25 ug and 50 ug, study procedure or surgery related): Most were mild
- patients experiencing adverse events ([4]; 4 patients 25 ug and 4 patients 50 ug, single IVT): 7 out of 8
- total adverse events ([4]; 8 patients, 25 ug and 50 ug): 20
- BCVA logMAR study eye week 6 ([5]; 25 ug (dose per Table 1)): 0.34 logMAR and 0.18 logMAR and 0.82 logMAR (2×)
- BCVA logMAR study eye week 9 ([5]; 25 ug (dose per Table 1)): 0.14 logMAR and 0.12 logMAR and 0.64 logMAR and 0.78 logMAR
- BCVA logMAR study eye week 24 ([5]; 25 ug (dose per Table 1)): 0.5 logMAR and 0.2 logMAR and 0.68 logMAR and 0.7 logMAR
- BCVA Snellen study eye baseline ([5]; 25 ug single IVT, baseline, individual patients): 20/160 and 20/100 and 20/200 and HM
- BCVA Snellen study eye week 6 ([5]; 25 ug single IVT): 20/40 and 20/32 and 20/125 (2×)
- BCVA Snellen study eye week 9 ([5]; 25 ug single IVT): 20/25 (2×) and 20/100 and 20/125
- BCVA Snellen study eye week 24 ([5]; 25 ug single IVT): 20/60 and 20/32 and 20/100 (2×)
- BCVA logMAR study eye baseline ([5]; 50 ug (dose per Table 1), baseline, individual patients): 3 logMAR and 2 logMAR (3×)
- BCVA logMAR study eye week 6 ([5]; 50 ug (dose per Table 1)): 0.46 logMAR and 0.38 logMAR (2×) and 0.52 logMAR
- BCVA logMAR study eye week 9 ([5]; 50 ug (dose per Table 1)): 0.6 logMAR and 0.56 logMAR and 0.34 logMAR
- BCVA logMAR study eye week 24 ([5]; 50 ug (dose per Table 1)): 0.76 logMAR and 0.2 logMAR and 0.64 logMAR and 0.34 logMAR
- BCVA Snellen study eye baseline ([5]; 50 ug single IVT, baseline, individual patients): HM and CF (3×)
- BCVA Snellen study eye week 6 ([5]; 50 ug single IVT): 20/50 (2×) and 20/80
- BCVA Snellen study eye week 9 ([5]; 50 ug single IVT): 20/80 (2×) and 20/50
- BCVA Snellen study eye week 24 ([5]; 50 ug single IVT): 20/125 and 20/32 and 20/80 and 20/50
- BCVA logMAR study eye week 6 ([5]; 100 ug (dose per Table 1)): 0.8 logMAR and 0.7 logMAR and 1 logMAR and 1.6 logMAR
- BCVA logMAR study eye week 24 ([5]; 100 ug (dose per Table 1)): 0.5 logMAR and 0.7 logMAR and 1.3 logMAR and 0.6 logMAR
- BCVA Snellen study eye baseline ([5]; 100 ug single IVT, baseline, individual patients): HM (2×) and 20/100 and 20/200
- BCVA Snellen study eye week 6 ([5]; 100 ug single IVT): 20/125 and 20/100 and 20/200 and 20/800
- BCVA Snellen study eye week 9 ([5]; 100 ug single IVT): 20/200 and 20/80 and HM and 20/400
- BCVA Snellen study eye week 24 ([5]; 100 ug single IVT): 20/63 and 20/100 and 20/400 and 20/80
- BCVA logMAR study eye week 6 ([5]; 200 ug (dose per Table 1)): 0.4 logMAR and 0.7 logMAR
- BCVA logMAR study eye week 9 ([5]; 200 ug (dose per Table 1)): 0.36 logMAR and 0.6 logMAR
- BCVA logMAR study eye week 24 ([5]; 200 ug (dose per Table 1)): 0.2 logMAR
- BCVA Snellen study eye baseline ([5]; 200 ug single IVT, baseline, individual patients): 20/160 and HM
- BCVA Snellen study eye week 6 ([5]; 200 ug single IVT): 20/50 and 20/100
- BCVA Snellen study eye week 9 ([5]; 200 ug single IVT): 20/40 and 20/80
- BCVA Snellen study eye week 24 ([5]; 200 ug single IVT): 20/32
- summary statistics for all patients, mean (BCVA logMAR), Week 9 ([5]; all doses, n 13, week 9): 0.78
- summary statistics for all patients, mean (BCVA logMAR), Week 24 ([5]; all doses, n 13, week 24): 0.56
- summary statistics for all patients, mean (BCVA logMAR), Baseline ([5]; all doses, n 14, baseline): 1.86
- summary statistics for all patients, mean (BCVA logMAR), Week 6 ([5]; all doses, n 14, week 6): 0.65
- visual outcomes (visual acuity) ([5]; all patients receiving 25 ug and 50 ug): improvement in visual outcomes
- visual field outcomes as measured by Humphrey Visual Field (HVF) analysis ([6]; 50 ug and 100 ug, two IVT injections (day 0, day 90), compared to sham): improvement in visual field outcomes; also recorded: improvement in visual field was generally observed
- visual field benefit in patients having lower baseline sensitivities ([6]; baseline sensitivity equal to or less than −5): benefits of ONL1204 treatment were also observed
